# Tests used:
# [1] = molecular target: T1, Estrogen-related receptor gamma (Homo sapiens, UniProt P62508)
# T1 sequence (P62508 whole entry): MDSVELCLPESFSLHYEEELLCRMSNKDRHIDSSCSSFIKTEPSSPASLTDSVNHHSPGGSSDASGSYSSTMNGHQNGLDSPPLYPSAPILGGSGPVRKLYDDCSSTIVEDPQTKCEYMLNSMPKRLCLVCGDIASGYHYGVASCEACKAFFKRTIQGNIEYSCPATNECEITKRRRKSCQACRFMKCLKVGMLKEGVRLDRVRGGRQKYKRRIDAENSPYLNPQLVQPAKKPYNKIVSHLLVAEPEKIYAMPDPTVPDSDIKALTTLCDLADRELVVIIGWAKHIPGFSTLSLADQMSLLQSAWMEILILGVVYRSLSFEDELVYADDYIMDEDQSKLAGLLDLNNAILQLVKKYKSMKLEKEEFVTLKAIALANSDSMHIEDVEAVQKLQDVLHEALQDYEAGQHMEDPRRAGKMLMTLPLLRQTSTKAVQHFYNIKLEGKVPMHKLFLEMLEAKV
# [2] = molecular target: T2, Steroid hormone receptor ERR1 (Homo sapiens, UniProt P11474)
# T2 sequence (P11474 whole entry): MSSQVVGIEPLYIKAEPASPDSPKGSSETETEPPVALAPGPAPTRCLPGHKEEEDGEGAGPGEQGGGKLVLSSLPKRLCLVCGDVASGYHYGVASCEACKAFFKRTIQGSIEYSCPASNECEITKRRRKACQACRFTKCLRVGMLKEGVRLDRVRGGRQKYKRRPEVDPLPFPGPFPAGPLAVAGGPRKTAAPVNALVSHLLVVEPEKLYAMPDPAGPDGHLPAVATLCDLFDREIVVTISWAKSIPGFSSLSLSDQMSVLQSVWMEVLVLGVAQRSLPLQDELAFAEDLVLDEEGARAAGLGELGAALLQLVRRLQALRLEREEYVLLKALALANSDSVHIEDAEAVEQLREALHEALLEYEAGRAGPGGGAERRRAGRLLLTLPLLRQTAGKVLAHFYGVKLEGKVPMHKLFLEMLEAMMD
# [3] = molecular target: T3, Estrogen receptor (Homo sapiens, UniProt P03372)
# T3 sequence (P03372 whole entry): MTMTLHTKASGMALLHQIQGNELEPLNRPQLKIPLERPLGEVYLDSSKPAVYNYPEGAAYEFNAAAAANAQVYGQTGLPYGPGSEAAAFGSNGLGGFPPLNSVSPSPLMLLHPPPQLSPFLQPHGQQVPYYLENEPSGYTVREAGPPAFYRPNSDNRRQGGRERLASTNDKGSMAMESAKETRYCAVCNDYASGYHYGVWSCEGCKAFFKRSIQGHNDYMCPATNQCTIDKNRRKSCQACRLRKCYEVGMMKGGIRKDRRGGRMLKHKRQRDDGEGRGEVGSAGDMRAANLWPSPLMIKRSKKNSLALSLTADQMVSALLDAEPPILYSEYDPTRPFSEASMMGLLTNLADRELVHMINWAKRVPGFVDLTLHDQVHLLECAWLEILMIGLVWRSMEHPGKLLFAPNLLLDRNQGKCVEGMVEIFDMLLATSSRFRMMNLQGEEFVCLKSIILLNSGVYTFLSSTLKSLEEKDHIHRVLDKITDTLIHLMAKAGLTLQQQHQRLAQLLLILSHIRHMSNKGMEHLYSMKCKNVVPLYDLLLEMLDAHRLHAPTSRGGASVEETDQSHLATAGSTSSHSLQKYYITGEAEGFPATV
# [4] = molecular target: T4, CYP1A2 (Homo sapiens, UniProt P05177); test: Inhibition of CYP1A2 in human liver microsomes assessed as reduction in phenacetin O-deethylase activity at 10 uM preincubated for 5 mins followed by NADPH addition and measured after 15 mins by LC-MS/MS analysis relative to control; type: ADME; settings: probe phenacetin (O-deethylation)
# T4 sequence (P05177 whole entry): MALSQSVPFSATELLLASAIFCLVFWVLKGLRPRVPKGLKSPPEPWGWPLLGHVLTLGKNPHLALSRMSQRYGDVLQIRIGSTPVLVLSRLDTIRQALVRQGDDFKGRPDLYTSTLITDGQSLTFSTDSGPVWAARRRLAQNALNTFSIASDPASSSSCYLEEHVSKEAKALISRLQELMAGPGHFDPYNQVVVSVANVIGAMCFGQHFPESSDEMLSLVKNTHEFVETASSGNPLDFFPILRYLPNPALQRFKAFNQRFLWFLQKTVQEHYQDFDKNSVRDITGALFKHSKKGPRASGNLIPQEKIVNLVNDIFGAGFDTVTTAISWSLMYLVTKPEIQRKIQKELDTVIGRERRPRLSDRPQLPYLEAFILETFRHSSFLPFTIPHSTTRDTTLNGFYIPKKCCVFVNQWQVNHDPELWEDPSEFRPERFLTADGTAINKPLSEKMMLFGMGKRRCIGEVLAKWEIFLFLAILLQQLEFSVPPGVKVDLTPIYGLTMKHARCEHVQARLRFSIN
# [5] = molecular target: CYP2C9 (Homo sapiens, UniProt P11712); test: Inhibition of CYP2C9 in human liver microsomes assessed as reduction in tolbutamide 4-hydroxylase activity at 10 uM preincubated for 5 mins followed by NADPH addition and measured after 15 mins by LC-MS/MS analysis relative to control; type: ADME; settings: probe tolbutamide (4-hydroxylation)
# [6] = molecular target: CYP2C19 (Homo sapiens, UniProt P33261); test: Inhibition of CYP2C19 in human liver microsomes assessed as reduction in S-mephenytoin 4-hydroxylase activity at 10 uM preincubated for 5 mins followed by NADPH addition and measured after 15 mins by LC-MS/MS analysis relative to control; type: ADME; settings: probe S-mephenytoin (4-hydroxylation)
# [7] = molecular target: CYP2D6 (Homo sapiens, UniProt P10635); test: Inhibition of CYP2D6 in human liver microsomes assessed as reduction in dextromethorphan O-demethylase activity at 10 uM preincubated for 5 mins followed by NADPH addition and measured after 15 mins by LC-MS/MS analysis relative to control; type: ADME; settings: probe dextromethorphan (O-demethylation)
# [8] = molecular target: CYP3A4 (Homo sapiens, UniProt P08684); test: Inhibition of CYP3A4 in human liver microsomes assessed as reduction in midazolam 1-hydroxylase activity at 10 uM preincubated for 5 mins followed by NADPH addition and measured after 15 mins by LC-MS/MS analysis relative to control; type: ADME; settings: probe midazolam (1-hydroxylation)
# [9] = Metabolic stability in human liver microsomes assessed as compound remaining at 1 uM after 30 mins in presence of NADPH regeneration system by LC-MS/MS analysis; type: ADME, Microsome; settings: read-out: Stability
# [10] = Metabolic stability in dog liver microsomes assessed as compound remaining at 1 uM after 30 mins in presence of NADPH regeneration system by LC-MS/MS analysis; type: ADME, Canis lupus familiaris, Microsome; settings: read-out: Stability
# [11] = Metabolic stability in rat liver microsomes assessed as compound remaining at 1 uM after 30 mins in presence of NADPH regeneration system by LC-MS/MS analysis; type: ADME, Microsome; settings: read-out: Stability
# [12] = Metabolic stability in mouse liver microsomes assessed as compound remaining at 1 uM after 30 mins in presence of NADPH regeneration system by LC-MS/MS analysis; type: ADME, Microsome; settings: read-out: Stability
# [13] = Effective permeability of the compound at 10 uM after 5 hrs by PAMPA; type: ADME; settings: read-out: Peff
# [14] = molecular target: T5, Steroid hormone receptor ERR2 (Homo sapiens, UniProt O95718); test: Binding affinity to ERRbeta (unknown origin) using fluorescein-conjugated coactivator PGC-1alpha incubated for 1 hr by TR-FRET assay
# T5 sequence (O95718 whole entry): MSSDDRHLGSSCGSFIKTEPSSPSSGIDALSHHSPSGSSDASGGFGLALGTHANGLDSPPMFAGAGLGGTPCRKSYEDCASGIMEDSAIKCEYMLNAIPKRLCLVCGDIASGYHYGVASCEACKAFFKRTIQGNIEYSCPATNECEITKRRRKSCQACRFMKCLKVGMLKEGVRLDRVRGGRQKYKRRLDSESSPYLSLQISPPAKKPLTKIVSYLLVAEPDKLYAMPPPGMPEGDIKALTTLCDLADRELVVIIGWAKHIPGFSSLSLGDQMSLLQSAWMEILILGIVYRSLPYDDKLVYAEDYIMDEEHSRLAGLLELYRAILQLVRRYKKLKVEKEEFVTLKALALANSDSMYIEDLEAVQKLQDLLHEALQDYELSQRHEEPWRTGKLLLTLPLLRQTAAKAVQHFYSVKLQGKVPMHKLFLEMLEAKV
# Chain of CYP2C19 (P33261 whole entry): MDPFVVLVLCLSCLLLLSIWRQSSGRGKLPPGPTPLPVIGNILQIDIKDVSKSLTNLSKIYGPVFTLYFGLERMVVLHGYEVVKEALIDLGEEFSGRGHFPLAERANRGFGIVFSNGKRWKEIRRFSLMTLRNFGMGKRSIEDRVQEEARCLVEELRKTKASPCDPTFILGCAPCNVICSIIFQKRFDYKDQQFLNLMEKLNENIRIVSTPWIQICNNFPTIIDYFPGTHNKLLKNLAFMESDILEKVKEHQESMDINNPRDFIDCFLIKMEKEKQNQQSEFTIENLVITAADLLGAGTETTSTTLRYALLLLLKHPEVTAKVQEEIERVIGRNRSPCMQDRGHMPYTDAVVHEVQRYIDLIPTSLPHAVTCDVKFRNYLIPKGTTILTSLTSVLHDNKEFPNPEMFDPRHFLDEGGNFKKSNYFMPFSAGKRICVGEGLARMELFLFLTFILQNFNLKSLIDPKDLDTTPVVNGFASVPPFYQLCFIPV
# Chain of CYP2C9 (P11712 whole entry): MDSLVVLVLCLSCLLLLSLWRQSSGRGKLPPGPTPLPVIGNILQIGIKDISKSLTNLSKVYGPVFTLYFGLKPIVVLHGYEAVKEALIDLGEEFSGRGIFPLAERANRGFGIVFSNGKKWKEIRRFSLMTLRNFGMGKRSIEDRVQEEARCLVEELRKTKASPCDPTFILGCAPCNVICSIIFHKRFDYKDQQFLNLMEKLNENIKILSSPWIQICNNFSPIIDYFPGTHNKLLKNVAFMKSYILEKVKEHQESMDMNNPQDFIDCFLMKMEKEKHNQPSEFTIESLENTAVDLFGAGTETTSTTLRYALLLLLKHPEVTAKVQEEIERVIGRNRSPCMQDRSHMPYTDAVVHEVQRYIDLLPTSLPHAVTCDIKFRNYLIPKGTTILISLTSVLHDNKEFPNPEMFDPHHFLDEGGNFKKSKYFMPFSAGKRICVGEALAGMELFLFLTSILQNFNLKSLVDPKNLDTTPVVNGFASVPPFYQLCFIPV
# Chain of CYP2D6 (P10635 whole entry): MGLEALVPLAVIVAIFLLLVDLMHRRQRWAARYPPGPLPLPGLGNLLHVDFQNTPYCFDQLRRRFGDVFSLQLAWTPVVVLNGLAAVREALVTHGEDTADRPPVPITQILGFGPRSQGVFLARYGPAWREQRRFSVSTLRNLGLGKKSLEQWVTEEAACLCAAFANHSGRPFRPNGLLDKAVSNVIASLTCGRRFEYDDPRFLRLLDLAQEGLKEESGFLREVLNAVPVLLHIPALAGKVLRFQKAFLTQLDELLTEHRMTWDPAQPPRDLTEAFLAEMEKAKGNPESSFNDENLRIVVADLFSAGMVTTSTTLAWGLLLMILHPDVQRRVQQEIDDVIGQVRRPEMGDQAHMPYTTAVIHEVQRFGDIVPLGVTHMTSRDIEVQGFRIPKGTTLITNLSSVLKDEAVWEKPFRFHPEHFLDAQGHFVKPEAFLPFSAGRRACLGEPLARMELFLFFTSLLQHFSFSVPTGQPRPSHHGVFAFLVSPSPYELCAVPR
# Chain of CYP3A4 (P08684 whole entry): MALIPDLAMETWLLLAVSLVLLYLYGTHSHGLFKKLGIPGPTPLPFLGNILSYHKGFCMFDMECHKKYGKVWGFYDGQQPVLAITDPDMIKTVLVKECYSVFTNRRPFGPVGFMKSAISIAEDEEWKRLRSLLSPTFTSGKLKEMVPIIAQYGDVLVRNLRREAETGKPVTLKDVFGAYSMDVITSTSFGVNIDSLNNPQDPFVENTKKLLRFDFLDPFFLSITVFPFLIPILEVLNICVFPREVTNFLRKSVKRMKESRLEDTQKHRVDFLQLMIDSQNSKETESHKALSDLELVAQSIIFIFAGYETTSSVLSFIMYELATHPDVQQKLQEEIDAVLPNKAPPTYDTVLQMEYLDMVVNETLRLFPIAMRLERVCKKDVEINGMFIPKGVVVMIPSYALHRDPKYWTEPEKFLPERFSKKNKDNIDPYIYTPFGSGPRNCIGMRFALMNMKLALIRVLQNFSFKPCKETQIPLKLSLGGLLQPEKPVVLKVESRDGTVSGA
smiles,measurement,setting,value
OCCC/C(=C(\c1ccc(O)cc1)c1ccc(N2CCN(C3COC3)CC2)cc1)c1ccccc1,IC50,[1],0.214 µM
CC(C)N1CCN(c2ccc(/C(=C(/CCCO)c3ccccc3)c3ccc(NC(=N)N)cc3)cc2)CC1,IC50,[1],> 10 µM
OCCC/C(=C(\c1ccc(O)cc1)c1ccc(N2CCN(C3CCC3)CC2)cc1)c1ccccc1,IC50,[1],0.053 µM
same,IC50,[2],> 10 µM
same,IC50,[3],1.66 µM
CC(C)N1CCN(c2ccc(/C(=C(/CCCO)c3ccccc3)c3ccc(Br)cc3)cc2)CC1.Cl.Cl,"inhibition at 0.25 h, 10 µM",[4],6.5%
same,"inhibition at 0.25 h, 10 µM",[5],3.1%
same,"inhibition at 0.25 h, 10 µM",[6],13.7%
same,"inhibition at 0.25 h, 10 µM",[7],28.5%
same,"inhibition at 0.25 h, 10 µM",[8],35.5%
same,"remaining at 0.5 h, 1 µM",[9],> 100%
same,"remaining at 0.5 h, 1 µM",[10],64.4%
same,"remaining at 0.5 h, 1 µM",[11],74.2%
same,"remaining at 0.5 h, 1 µM",[12],48.5%
same,"Papp at 5 h, 10 µM",[13],0.37 ×10⁻⁶ cm/s
same,IC50,[2],> 10 µM
same,IC50,[3],> 10 µM
CN1CCN(c2ccc(/C(=C(/CCCOC(=O)C(C)(C)C)c3ccccc3)c3ccc(OC(=O)C(C)(C)C)cc3)cc2)CC1,IC50,[1],> 10 µM
CC(C)N1CCN(c2cccc(/C(=C(/CCCO)c3ccccc3)c3cccc(O)c3)c2)CC1,IC50,[1],5.62 µM
OCCC/C(=C(\c1ccc(O)cc1)c1ccc(N2CCN(C3CCCCC3)CC2)cc1)c1ccccc1,IC50,[1],0.099 µM
same,IC50,[2],9.7 µM
same,IC50,[3],2.12 µM
CC(C)N1CCN(c2ccc(/C(=C(/CCCO)c3ccccc3)c3ccc(OS(=O)(=O)C(F)(F)F)cc3)cc2)CC1,IC50,[1],3.02 µM
CN1CCN(c2ccc(/C(=C(/CCCO)c3ccccc3)c3ccc(N)cc3)cc2)CC1,IC50,[1],0.14 µM
Cc1ccc(/C(=C(\CCCO)c2ccccc2)c2ccc(N3CCNCC3)cc2)cc1.Cl.Cl,IC50,[14],2.1 µM
same,"inhibition at 0.25 h, 10 µM",[4],28.7%
same,"inhibition at 0.25 h, 10 µM",[5],39.3%
same,"inhibition at 0.25 h, 10 µM",[6],57.7%
same,"inhibition at 0.25 h, 10 µM",[7],38.5%
same,"inhibition at 0.25 h, 10 µM",[8],59.9%
same,"remaining at 0.5 h, 1 µM",[9],44%
same,"remaining at 0.5 h, 1 µM",[10],58%
same,"remaining at 0.5 h, 1 µM",[11],71.5%
same,"remaining at 0.5 h, 1 µM",[12],28.8%
same,"Papp at 5 h, 10 µM",[13],3.61 ×10⁻⁶ cm/s
same,IC50,[2],> 10 µM
same,IC50,[3],> 10 µM
N=C(N)N1CCN(c2ccc(/C(=C(/CCCO)c3ccccc3)c3ccc(O)cc3)cc2)CC1,IC50,[1],0.511 µM
CC(C)N1CCN(c2ccc(/C(=C(/CCCO)c3ccccc3)c3ccc(OS(=O)(=O)C4CC4)cc3)cc2)CC1,IC50,[1],1.36 µM
